Laboratory results as given in PubChem BioAssay (NCI).
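Following 48 hours of exposure in 96-well plates, responses at five concentrations were used to interpolate endpoints linearly. Abbreviation: GI50, concentration required for 50% inhibition of growth. TGI marks complete inhibition of growth.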

Tests used:
Assay in all cases: NCI-60 cell line screen, 48 h
M14 melanoma = tested on: M14 melanoma
TK-10 renal = tested on: TK-10 renal
RPMI-8226 leukemia = tested on: RPMI-8226 leukemia
U251 CNS = tested on: U251 CNS
DU-145 prostate = tested on: DU-145 prostate
HL-60(TB) leukemia = tested on: HL-60(TB) leukemia
K-562 leukemia = tested on: K-562 leukemia
786-0 renal = tested on: 786-0 renal
NCI-H460 lung = tested on: NCI-H460 lung
UACC-62 melanoma = tested on: UACC-62 melanoma
NCI/ADR-RES ovarian = tested on: NCI/ADR-RES ovarian
BT-549 breast = tested on: BT-549 breast
OVCAR-3 ovarian = tested on: OVCAR-3 ovarian
ACHN renal = tested on: ACHN renal
SN12C renal = tested on: SN12C renal
RXF 393 renal = tested on: RXF 393 renal
SK-MEL-5 melanoma = tested on: SK-MEL-5 melanoma
HT29 colon = tested on: HT29 colon
HCT-116 colon = tested on: HCT-116 colon
OVCAR-5 ovarian = tested on: OVCAR-5 ovarian
HOP-62 NSCLC = tested on: HOP-62 NSCLC
HOP-92 NSCLC = tested on: HOP-92 NSCLC
HCC-2998 colon = tested on: HCC-2998 colon
IGROV1 ovarian = tested on: IGROV1 ovarian
SK-MEL-2 melanoma = tested on: SK-MEL-2 melanoma
SK-OV-3 ovarian = tested on: SK-OV-3 ovarian
OVCAR-4 ovarian = tested on: OVCAR-4 ovarian

**Q.** Which GI50 (M14 melanoma) does the source give for `C=C1C(=O)O[C@H]2[C@H]1CC/C(COC(=O)/C=C/C(=O)NCc1ccc(Cn3c(=O)sn(-c4ccccc4)c3=O)cc1)=C\CC[C@@]1(C)O[C@@H]21` here?
**A.** 1.86 µM

**Q.** And the TGI (M14 melanoma)?
**A.** 4.37 µM

**Q.** What about the GI50 (TK-10 renal) of the same compound?
**A.** 1.92 µM

**Q.** What about the TGI (TK-10 renal) of the same compound?
**A.** 3.85 µM

**Q.** And the GI50 (RPMI-8226 leukemia)?
**A.** 1.21 µM

**Q.** What about the TGI (RPMI-8226 leukemia) of the same compound?
**A.** 4.78 µM

**Q.** And the GI50 (U251 CNS)?
**A.** 3.46 µM

**Q.** What about the TGI (U251 CNS) of the same compound?
**A.** 12.1 µM

**Q.** What about the GI50 (DU-145 prostate) of the same compound?
**A.** 1.95 µM

**Q.** And the TGI (DU-145 prostate)?
**A.** 4.07 µM

**Q.** And the GI50 (HL-60(TB) leukemia)?
**A.** 0.925 µM

**Q.** And the TGI (HL-60(TB) leukemia)?
**A.** 5.3 µM

**Q.** What about the GI50 (K-562 leukemia) of the same compound?
**A.** 0.501 µM

**Q.** What about the TGI (K-562 leukemia) of the same compound?
**A.** 18.4 µM

**Q.** And the GI50 (786-0 renal)?
**A.** 1.61 µM

**Q.** And the TGI (786-0 renal)?
**A.** 3.33 µM

**Q.** And the GI50 (NCI-H460 lung)?
**A.** 5.28 µM

**Q.** What about the TGI (NCI-H460 lung) of the same compound?
**A.** 22.2 µM

**Q.** And the GI50 (UACC-62 melanoma)?
**A.** 1.61 µM

**Q.** And the TGI (UACC-62 melanoma)?
**A.** 3.26 µM

**Q.** What about the GI50 (NCI/ADR-RES ovarian) of the same compound?
**A.** 47.8 µM

**Q.** What about the TGI (NCI/ADR-RES ovarian) of the same compound?
**A.** > 100 µM

**Q.** What about the GI50 (BT-549 breast) of the same compound?
**A.** 1.55 µM

**Q.** What about the TGI (BT-549 breast) of the same compound?
**A.** 2.91 µM

**Q.** What about the GI50 (OVCAR-3 ovarian) of the same compound?
**A.** 0.519 µM

**Q.** And the TGI (OVCAR-3 ovarian)?
**A.** 1.72 µM

**Q.** And the GI50 (ACHN renal)?
**A.** 1.84 µM

**Q.** And the TGI (ACHN renal)?
**A.** 3.78 µM

**Q.** What about the GI50 (SN12C renal) of the same compound?
**A.** 2.16 µM

**Q.** And the TGI (SN12C renal)?
**A.** 5.95 µM

**Q.** And the GI50 (RXF 393 renal)?
**A.** 1.43 µM

**Q.** What about the TGI (RXF 393 renal) of the same compound?
**A.** 2.83 µM

**Q.** And the GI50 (SK-MEL-5 melanoma)?
**A.** 2.36 µM

**Q.** And the TGI (SK-MEL-5 melanoma)?
**A.** 6.27 µM

**Q.** What about the GI50 (HT29 colon) of the same compound?
**A.** 1.86 µM

**Q.** And the TGI (HT29 colon)?
**A.** 3.84 µM

**Q.** And the GI50 (HCT-116 colon)?
**A.** 0.382 µM

**Q.** And the TGI (HCT-116 colon)?
**A.** 1.44 µM

**Q.** What about the GI50 (OVCAR-5 ovarian) of the same compound?
**A.** 2.69 µM

**Q.** What about the TGI (OVCAR-5 ovarian) of the same compound?
**A.** 5.8 µM

**Q.** And the GI50 (HOP-62 NSCLC)?
**A.** 13.2 µM

**Q.** What about the TGI (HOP-62 NSCLC) of the same compound?
**A.** 27.1 µM

**Q.** What about the GI50 (HOP-92 NSCLC) of the same compound?
**A.** 1.85 µM

**Q.** What about the TGI (HOP-92 NSCLC) of the same compound?
**A.** 3.55 µM

**Q.** And the GI50 (HCC-2998 colon)?
**A.** 2.11 µM

**Q.** What about the TGI (HCC-2998 colon) of the same compound?
**A.** 4.46 µM

**Q.** What about the GI50 (IGROV1 ovarian) of the same compound?
**A.** 2.44 µM

**Q.** What about the TGI (IGROV1 ovarian) of the same compound?
**A.** 7.24 µM

**Q.** And the GI50 (SK-MEL-2 melanoma)?
**A.** 2.22 µM

**Q.** And the TGI (SK-MEL-2 melanoma)?
**A.** 5.57 µM

**Q.** What about the GI50 (SK-OV-3 ovarian) of the same compound?
**A.** 30.3 µM

**Q.** And the TGI (SK-OV-3 ovarian)?
**A.** > 100 µM

**Q.** What about the GI50 (OVCAR-4 ovarian) of the same compound?
**A.** 2.69 µM
